In patent publication US6593340B1, “Pharmaceutical compositions containing N-propargylphentermine and related analogs to treat neurodegeneration and/or depression” (CV Technologies, Inc., priority 2000, dated 2003):
Read-outs that look alike come from different tables or passages of the source.

Tests used:
[1] = test system: DSP-4 induced noradrenaline depletion in mouse hippocampus; test: Prevention of DSP-4 neurotoxicity ex vivo (noradrenaline depletion); format: in vivo; conditions: 10 mg/kg i.p.; for % NA Restoration: then DSP-4 50 mg/kg one hour later, one week
Method: Neuroprotectant activity was evaluated by examining the prevention of DSP-4 induced noradrenaline depletion in mouse hippocampus as described previously (Yu et al., 1994). Briefly, mice were injected (i.p.) with either water or potential neuroprotectants (10 mg/kg in water). One hour later they were injected with either water or DSP-4 (50 mg/kg in water). One week later the mice were killed and the brains removed and the hippocampus dissected out. The hippocampus was frozen and saved for estimation of noradrenaline and other amine neurotransmitters and their metabolites (Sloley and Goldberg, 1991). The rest of the brain and the liver were frozen and retained for estimation of monoamine oxidase activities ex vivo as described earlier. […] References: Yu, P. H., Davis, B. A., Fang, J. and Boulton, A. A. (1994), Neuroprotective effect of some monoamine oxidase-B inhibitors against DSP-4 induced noradrenaline depletion in the mouse hippocampus, J. Neurochem. 63:1820-1828. Sloley, B. D. and Goldberg J. I. (1991), Determination of y-glutamyl conjugates of monoamines by means of high-performance liquid chromatography with electrochemical detection and application to gastropod tissues, J. Chromatog. 567:49-56.

[2] = test system: serotonin (5-HT) uptake into rat striatal prisms; test: Inhibition of serotonin uptake in vitro; format: cell-based; design: dose or concentration left out as unconfirmed
Method: Animals were killed by decapitation and the hippocampus or striatum were removed and placed in ice cold incubation medium. […] 0.8 ml of ice cold prism of suspension per test tube was used. Each test tube was pre-incubated for 5 minutes at 37° C. At this time each test tube was placed on ice and the appropriate drug solution or control was added. This was rapidly followed by the addition of the radiolabled amine (titrated noradrenaline or serotonin, 0.01 μM, specific activity about 13.5 Ci/mmol). The mixture was incubated for 10 minutes at 37° C. The incubations were then filtered and washed using a cell harvester and the radioactivity retained on the filters was measured using a scintillation counter. The percent inhibition of amine uptake compared to controls containing no drug was calculated. […] The effect of viloxaine hydrochloride on the transport of noradenaline, dopamine, 5-hydroxytryptamine and gamma-amino-butyric acid in rat brain tissue.

[3] = test system: rat brain and liver monoamine oxidase-A; test: Monoamine oxidase-A-inhibiting activity ex vivo; format: in vivo; conditions: for % Inhibition Monoamine Oxidase-A: 7 days following injection, i.p., 10 mg/kg combined with DSP4 50 mg/kg; for effect on monoamine oxidase-A activity in the brain or liver: seven days after administration
[4] = test system: noradrenaline uptake into rat hippocampal prisms; test: Inhibition of noradrenaline uptake in vitro; format: cell-based; design: dose or concentration left out as unconfirmed
Method: The ability of N-propargylphetermine and related derivatives to inhibit monoamine uptake was evaluated in vitro by examining the effects of said compounds on the uptake of radiolabeled noradrenaline and serotonin into fresh rat hippocampal and striatal prisms, respectively according to the method described in Martin et al., (1978). Animals were killed by decapitation and the hippocampus or striatum were removed and placed in ice cold incubation medium. Prisms were prepared using a tissue chopper, resuspended in 800 volumes of incubation medium containing 12.5 μM nialamide to inhibit amine metabolism and stored on ice until used. 0.8 ml of ice cold prism of suspension per test tube was used. Each test tube was pre-incubated for 5 minutes at 37° C. At this time each test tube was placed on ice and the appropriate drug solution or control was added. This was rapidly followed by the addition of the radiolabled amine (titrated noradrenaline or serotonin, 0.01 μM, specific activity about 13.5 Ci/mmol). The mixture was incubated for 10 minutes at 37° C. The incubations were then filtered and washed using a cell harvester and the radioactivity retained on the filters was measured using a scintillation counter. The percent inhibition of amine uptake compared to controls containing no drug was calculated. Reference: Maretin I. L., Baker G. B. and Mitchell, P. R. (1978). The effect of viloxaine hydrochloride on the transport of noradenaline, dopamine, 5-hydroxytryptamine and gamma-amino-butyric acid in rat brain tissue. Neuropharmacology 17:421-423.

[5] = target: T1, rat brain monoamine oxidase-A (Rattus norvegicus, UniProt P21396); test: Monoamine oxidase-A-inhibiting activity in vitro (radiochemical, 5-hydroxytryptamine substrate); format: biochemical
T1 construct: incubated in appropriately diluted homogenates of rat brain or liver; from tissue; host or cells: rat brain or liver homogenate
T1 sequence (P21396 1-526): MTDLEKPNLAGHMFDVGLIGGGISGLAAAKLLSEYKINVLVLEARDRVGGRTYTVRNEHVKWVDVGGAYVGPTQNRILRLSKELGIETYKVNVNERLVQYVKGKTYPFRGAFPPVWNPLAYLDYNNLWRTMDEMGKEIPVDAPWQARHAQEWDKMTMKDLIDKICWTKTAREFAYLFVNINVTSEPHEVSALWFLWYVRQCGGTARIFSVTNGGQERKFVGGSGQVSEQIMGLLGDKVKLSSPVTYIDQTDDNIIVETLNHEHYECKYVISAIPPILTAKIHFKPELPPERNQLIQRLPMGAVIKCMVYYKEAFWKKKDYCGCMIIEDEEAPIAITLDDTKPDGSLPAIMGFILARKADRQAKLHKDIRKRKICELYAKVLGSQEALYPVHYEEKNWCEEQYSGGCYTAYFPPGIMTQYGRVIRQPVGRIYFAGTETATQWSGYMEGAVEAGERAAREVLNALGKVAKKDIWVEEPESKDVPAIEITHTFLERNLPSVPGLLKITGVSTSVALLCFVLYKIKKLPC
Method: The compounds were evaluated for in vitro monoamine oxidase-A-inhibiting activity using the radiochemical procedure of Lyles and Callingham (1982) employing radiolabeled 5-hydroxytryptamine as substrate for monoamine oxidase-A. Various concentrations of the compounds of interest were incubated in appropriately diluted homogenates of rat brain or liver in a 0.2 M potassium phosphate buffer. Incubations proceeded at 37° C. for 10 minutes. Incubation was terminated by the addition of acid and the radiolabeled product (5-hydroxyindoleacetic acid) was extracted and quantified by liquid scintillation counting procedures. […] The percent inhibition of monoamine oxidase-A activity compared to controls containing no drug was calculated.

[6] = target: T2, rat brain monoamine oxidase-B (Rattus norvegicus, UniProt P19643); test: Monoamine oxidase-B-inhibiting activity in vitro (radiochemical, β-phenylethylamine substrate); format: biochemical
T2 construct: incubated in appropriately diluted homogenates of rat brain or liver; from tissue; host or cells: rat brain or liver homogenate
T2 sequence (P19643 1-520): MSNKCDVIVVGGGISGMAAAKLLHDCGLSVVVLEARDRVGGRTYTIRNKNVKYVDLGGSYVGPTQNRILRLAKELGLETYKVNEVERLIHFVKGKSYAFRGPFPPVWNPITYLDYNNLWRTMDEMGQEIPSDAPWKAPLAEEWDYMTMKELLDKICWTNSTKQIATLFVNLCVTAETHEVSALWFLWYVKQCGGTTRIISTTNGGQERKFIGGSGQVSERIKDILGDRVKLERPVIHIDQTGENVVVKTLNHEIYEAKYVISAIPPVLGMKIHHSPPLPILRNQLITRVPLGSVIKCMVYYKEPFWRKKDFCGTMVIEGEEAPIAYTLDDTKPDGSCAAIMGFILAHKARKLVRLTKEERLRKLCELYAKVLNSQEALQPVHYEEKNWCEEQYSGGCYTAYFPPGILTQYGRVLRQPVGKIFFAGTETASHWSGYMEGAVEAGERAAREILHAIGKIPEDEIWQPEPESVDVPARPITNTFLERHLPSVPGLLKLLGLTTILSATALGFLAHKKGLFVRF
Method: The compounds were evaluated for in vitro monoamine oxidase-B inhibiting activity using the radiochemical procedure of Lyles and Callingham (1982) employing radiolabeled β-phenylethylamine as substrate for monoamine oxidase-B. Various concentrations of the compounds of interest were incubated in appropriately diluted homogenates of rat brain or liver in a 0.2 M potassium phosphate buffer. Incubations proceeded at 37° C. for 10 minutes. Incubation was terminated by the addition of hydrochloric acid and the radiolabeled product (phenylacetic acid) was extracted and quantified by liquid scintillation counting procedures. […] The percent inhibition of monoamine oxidase-B activity compared to controls containing no drug was calculated. Reference: Lyles, G. A. and Callingham, B. A. (1982). In vitro and in vivo inhibition by benserazide of clorgyline-resistant amine exodiases in rat cardiovascular tissues. Biochem. Pharmacol, 31:1417-1424.

[7] = test system: rat brain and liver monoamine oxidase-B; test: Monoamine oxidase-B-inhibiting activity ex vivo; format: in vivo; conditions: for % Inhibition Monoamine Oxidase-B: 7 days following injection, i.p., combined with DSP4 50 mg/kg; for effect on monoamine oxidase-B activity in the brain or liver: seven days after administration
Method: The compounds were evaluated for ex vivo monoamine oxidase-B-inhibiting activity using the radiochemical procedure of Lyles and Callingham (1982) employing radiolabeled β-phenylethylamine as substrate for monoamine oxidase-B. The compounds of interest were injected intraperitoneally in water. Animals were killed by decapitation and the brains and livers immediately removed and frozen until assay for monoamine oxidase-B activity. Tissues were homogenized and appropriately diluted in buffer prior to incubation. Incubations proceeded at 37° C. for 10 minutes. Incubation was terminated by the addition of acid and the radiolabeled product (phenylacetic acid) was extracted and quantified by liquid scintillation counting procedures. […] The percent inhibition of monoamine oxidase-B activity compared to controls containing no drug was calculated. Reference: Lyles, G. A. and Callingham, B. A. (1982). […] Biochaem. Pharmacol. 31:1417-1424.
Neuroprotectant activity was evaluated by examining the prevention of DSP-4 induced noradrenaline depletion in mouse hippocampus as described previously (Yu et al., 1994). Briefly, mice were injected (i.p.) with either water or potential neuroprotectants (10 mg/kg in water). One hour later they were injected with either water or DSP-4 (50 mg/kg in water). One week later the mice were killed and the brains removed and the hippocampus dissected out. The hippocampus was frozen and saved for estimation of noradrenaline and other amine neurotransmitters and their metabolites (Sloley and Goldberg, 1991). The rest of the brain and the liver were frozen and retained for estimation of monoamine oxidase activities ex vivo as described earlier. […] 63:1820-1828. Sloley, B. D. and Goldberg J. I. (1991), Determination of y-glutamyl conjugates of monoamines by means of high-performance liquid chromatography with electrochemical detection and application to gastropod tissues, J. Chromatog. 567:49-56.

For (−)-deprenyl [reference compound], the “% NA Restoration” value ([1]; Table 5 experiment) was 97.2% and the “% NA Restoration” value ([1]; Table 6 experiment) was 90.3%.

For `C#CCNC(C)(C)Cc1ccccc1` [CVT-PP019, N-propargylphentermine], the “% inhibition 5-HT uptake” value [2] was 68 ± 2%, the “protection against DSP-4-induced noradrenaline depletion” value [1] was “significantly protected” and the “% NA Restoration” value ([1]; Table 5 experiment) was 114.6%. The “% Inhibition Monoamine Oxidase-A” value ([3]; brain) was −16.4 ± 4.9%, the “% Inhibition Monoamine Oxidase-A” value ([3]; liver) was −20.1 ± 4.4% and the “effect on monoamine oxidase-A activity in the brain or liver” value [3] was “did not significantly affect”. The “% inhibition NA uptake” value [4] was 77 ± 3%, the IC50 [5] was 53 µM and the IC50 [6] was 5.7 µM. The “% Inhibition Monoamine Oxidase-B” value ([7]; brain) was −9.4 ± 3.0%, the “% Inhibition Monoamine Oxidase-B” value ([7]; liver) was −10.1 ± 6.6% and the “effect on monoamine oxidase-B activity in the brain or liver” value [7] was “did not significantly affect”.

`C#CCNC(C)(C)Cc1ccc(Cl)cc1` [CVT-PP022, p-chloro-N-propargylphentermine] was tested, and the “% inhibition 5-HT uptake” value [2] was 89 ± 1%, the “protection against DSP-4-induced noradrenaline depletion” value [1] was “significantly protected” and the “% NA Restoration” value ([1]; Table 6 experiment) was 70.5%. The “% Inhibition Monoamine Oxidase-A” value ([3]; brain) was 2.5 ± 5.2%, the “% Inhibition Monoamine Oxidase-A” value ([3]; liver) was 5.9 ± 4.1% and the “effect on monoamine oxidase-A activity in the brain or liver” value [3] was “did not significantly affect”. The “% inhibition NA uptake” value [4] was 93 ± 2%, the IC50 [5] was 160 µM and the IC50 [6] was 4 µM. For the same compound, the “% Inhibition Monoamine Oxidase-B” value ([7]; brain) was 17.5 ± 5.6%, the “% Inhibition Monoamine Oxidase-B” value ([7]; liver) was 12.6 ± 5.3% and the “effect on monoamine oxidase-B activity in the brain or liver” value [7] was “did not significantly affect”.

With `CNCCCN1c2ccccc2CCc2ccccc21` [Desipramine, reference compound] the “% inhibition NA uptake” value [4] was 99 ± 3%.

For `NNCCc1ccccc1` [phenelzine.H2SO4, phenelzine, reference compound], the IC50 ([5]; in vitro, rat brain homogenate, read-out: IC50 for inhibition of monoamine oxidase A) was 130 µM and the IC50 [6] was 26 µM.
